Measured values from patent publication US10221163B2 (priority 2015, dated 2019).
Where two headings read alike, the source gives them in different places.

Assays:
VIM-1 = VIM-1 (Pseudomonas aeruginosa (strain ATCC 15692 / DSM 22644 / CIP 104116 / JCM 14847 / LMG 12228 / 1C / PRS 101 / PAO1), UniProt A0A0F7KYQ8); assay: biochemical; conditions: CCF2-FA substrate, 30 pM enzyme, 2 hours at 25° C.
Procedure, shortened: (§1)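 Class B activity is measured in the presence of compound by fluorescence with CCF2-FA after a 2-hour incubation at 25° C. IC50 is taken from a 4-parameter fit of semi-logarithmic dose-response data.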

[1] = test system: Pseudomonas aeruginosa efflux+ (MB9798), IMP-1; type: cell-based; parameters: Concentration of metallo-β-lactamase inhibitor which restores susceptibility of efflux + (MB9798) strain to imipenem: unit not given here; conditions: C, D serine β-lactamase inhibitor closely related to relebactam; for P. aeruginosa expressing IMP-1, efflux + (MB9798) MITC95: concentration restoring susceptibility to imipenem at 2 μg/mL in the presence of a class A; for Concentration of metallo-β-lactamase inhibitor which restores susceptibility of efflux + (MB9798) strain to imipenem: imipenem at 2 μg/mL, in the presence of a class A
Procedure, shortened: (§2)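 PAO1 pair, broth microdilution; fixed β-lactam (imipenem/ceftazidime) at ~CLSI breakpoint + fixed class A/C BLI for AmpC; serial MBLi titration; endpoint = MBLi conc. restoring susceptibility; MB9798:MB9799 ratio = efflux liability.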

[2] = test system: Pseudomonas aeruginosa efflux− (MB9799), IMP-1; type: cell-based; conditions: C, D serine β-lactamase inhibitor closely related to relebactam; for P. aeruginosa expressing IMP-1, efflux − (MB9799) MITC95: concentration restoring susceptibility to imipenem at 2 μg/mL in the presence of a class A; for Concentration of metallo-β-lactamase inhibitor which restores susceptibility of efflux − (MB9799) strain to imipenem: imipenem at 2 μg/mL, in the presence of a class A
Procedure, shortened: as §2

[3] = test system: Pseudomonas aeruginosa MB9798 vs MB9799
Procedure, shortened: as §2

[4] = test system: Klebsiella pneumoniae expressing VIM-1 (IHMA599644); type: cell-based; conditions: for Klebsiella pneumoniae expressing VIM-1 (IHMA599644) MITC95: with imipenem 1 μg/ml, 95% inhibition of bacterial growth; for Klebsiella pneumoniae MITC95: VIM-1 strain IHMA599644, with imipenem 1 μg/ml, 95% inhibition of growth
Procedure, shortened: (§3)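 Colonies grown overnight on blood agar at 35° C were suspended in saline, diluted 1:100 into 1.1×CAMHB and dispensed. Imipenem was added to 1 μg/ml, then test compound. After 22 hours to 24 hours at 35° C, absorbance was recorded.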

[5] = test system: Serratia marcescens expressing IMP-1 (CL5741); type: cell-based; conditions: for Serratia marcescens expressing IMP-1 (CL5741) MITC95: with imipenem 1 μg/ml, 95% inhibition of bacterial growth; for Serratia marcescens MITC95: IMP-1 strain CL5741, with imipenem 1 μg/ml, 95% inhibition of growth
Procedure, shortened: as §3

[6] = test system: Escherichia coli expressing NDM-1 (CLB30005, CLB30016); type: cell-based; conditions: with imipenem 1 μg/ml; for Escherichia coli expressing NDM-1 (CLB30016) MITC95: 95% inhibition of bacterial growth; for Escherichia coli MITC95: NDM-1 strain, 95% inhibition of growth
Procedure, shortened: as §3

NDM-1 = NDM-1 (Klebsiella pneumoniae, UniProt C7C422); assay: biochemical; type: biochemical; conditions: fluorescence assay, CCF2-FA substrate, 1 pM enzyme, 2 hours at 25° C.; read-out: NDM-1 IC50
Procedure, shortened: as §1

IMP-1 = IMP-1 (Serratia marcescens, UniProt P52699); assay: biochemical; type: biochemical; conditions: CCF2-FA substrate, 2 pM enzyme, 2 hours at 25° C.
Procedure, shortened: as §1

[7] = fluorescence assay, read-out: VIM-1 IC50
[8] = ratio MITC95 PA_9798/MITC95 PA_9799
[9] = fluorescence assay, read-out: IMP-1 IC50
[10] = fold difference between efflux+ (MB9798) and efflux− (MB9799) strains, imipenem at 2 μg/mL

Chain of IMP-1 (P52699 whole entry, looked up, species assumed): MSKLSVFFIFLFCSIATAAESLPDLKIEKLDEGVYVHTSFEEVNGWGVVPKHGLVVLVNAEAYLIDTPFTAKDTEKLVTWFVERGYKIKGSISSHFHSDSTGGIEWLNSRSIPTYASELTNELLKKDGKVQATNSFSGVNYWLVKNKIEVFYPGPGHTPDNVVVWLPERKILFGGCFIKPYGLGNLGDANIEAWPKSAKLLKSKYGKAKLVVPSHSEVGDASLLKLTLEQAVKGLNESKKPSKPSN
Chain of NDM-1 (C7C422 whole entry, looked up, species assumed): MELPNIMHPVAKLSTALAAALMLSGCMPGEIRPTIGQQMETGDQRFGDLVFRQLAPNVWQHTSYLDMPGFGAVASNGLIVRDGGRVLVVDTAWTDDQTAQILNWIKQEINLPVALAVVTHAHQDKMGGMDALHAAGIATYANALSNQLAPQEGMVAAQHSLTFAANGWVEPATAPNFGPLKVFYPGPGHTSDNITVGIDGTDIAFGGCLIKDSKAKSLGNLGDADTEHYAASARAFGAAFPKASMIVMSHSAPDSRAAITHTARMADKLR

SMILES | IC50 (VIM-1; [7]) [nM] | P. aeruginosa expressing IMP-1, efflux + (MB9798) MITC95 [1] [µM] | P. aeruginosa expressing IMP-1, efflux − (MB9799) MITC95 [2] [µM] | Efflux ratio [3, 8] | Klebsiella pneumoniae expressing VIM-1 (IHMA599644) MITC95 [4] [µM] | Serratia marcescens expressing IMP-1 (CL5741) MITC95 [5] [µM] | Escherichia coli expressing NDM-1 (CLB30016) MITC95 [6] [µM] | IC50 (NDM-1) [nM] | IC50 (IMP-1; [9]) [nM] | IC50 (VIM-1; VIM-1 IC50, fluorescence assay) [nM] | Klebsiella pneumoniae MITC95 [4] [µM] | Serratia marcescens MITC95 [5] [µM] | Escherichia coli MITC95 [6] [µM] | Concentration of metallo-β-lactamase inhibitor which restores susceptibility of efflux + (MB9798) strain to imipenem [1] | Concentration of metallo-β-lactamase inhibitor which restores susceptibility of efflux − (MB9799) strain to imipenem [2] | Efflux ratio [3, 10] | IC50 (IMP-1; IMP-1 IC50, fluorescence assay) [nM]
CN1CCCC(NS(=O)(=O)c2ccc(-c3cccc4sc(N)nc34)c(-c3nnn[nH]3)c2S(N)(=O)=O)C1 (stereo not drawn) [Example 18, 4-(2-amino-1,3-benzothiazol-4-yl)-N1-(1-methylpiperidin-3-yl)-3-(1H-tetrazol-5-yl)benzene-1,2-disulfonamide] | 0.271 | 3.125 | 3.125 | 1.00 | 6.25 | 3.125 | 6.25 | 0.0488 | 0.268 | – | – | – | – | – | – | – | –
NCCNS(=O)(=O)c1ccc(-c2cccc3[nH]c([C@@H](N)CO)nc23)c(-c2nn[nH]n2)c1S(N)(=O)=O [Example 331, (R)-4-(2-(1-amino-2-hydroxyethyl)-1H-benzo[d]imidazol-4-yl)-N1-(2-aminoethyl)-3-(2H-tetrazol-5-yl)benzene-1,2-disulfonamide] | – | 1.563 | 1.563 | 1.00 | – | – | – | 0.228 | 2.28 | 0.18 | 3.125 | 3.125 | 1.563 | – | – | – | –
C[C@@H](CN)NS(=O)(=O)c1ccc(-c2cccc3sc(N)nc23)c(-c2nn[nH]n2)c1S(N)(=O)=O [Example 389, 4-(2-amino-1,3-benzothiazol-4-yl)-N^1-[(1S)-2-amino-1-methylethyl]-3-(2H-tetrazol-5-yl)benzene-1,2-disulfonamide] | – | – | – | – | – | – | – | 0.289 | – | 0.744 | 3.125 | 3.125 | 3.125 | 1.563 | 1.563 | 1.00 | 1.81
C[C@H](N)c1nc2c(-c3ccc(S(=O)(=O)N[C@@H]4CCNC4)c(S(N)(=O)=O)c3-c3nn[nH]n3)cccc2[nH]1 [Example 272, 4-(2-((S)-1-aminoethyl)-1H-benzo[d]imidazol-4-yl)-N1-((R)-pyrrolidin-3-yl)-3-(2H-tetrazol-5-yl)benzene-1,2-disulfonamide] | 0.11 | 1.563 | 0.7813 | 2.00 | – | – | – | 0.0667 | 1.36 | – | 1.563 | 1.563 | 3.125 | – | – | – | –
NCC(CN)NS(=O)(=O)c1ccc(-c2cccc3sc(N)nc23)c(-c2nn[nH]n2)c1S(N)(=O)=O [Example 436] | 0.116 | – | – | – | – | – | – | 0.0246 | 0.103 | – | 1.563 | 1.563 | 0.7813 | 0.7813 | 0.7813 | 1.00 | –
C[C@H](CN)NS(=O)(=O)c1ccc(-c2cccc3[nH]c(N)nc23)c(-c2nn[nH]n2)c1S(N)(=O)=O [Example 187, 4-(2-amino-1H-benzo[d]imidazol-4-yl)-N^1—((R)-1-aminopropan-2-yl)-3-(2H-tetrazol-5-yl)benzene-1,2-disulfonamide] | – | 0.3906 | 0.7813 | 0.50 | 1.172 | 0.7813 | 0.5859 | 0.0212 | 0.23 | 0.0982 | – | – | – | – | – | – | –
CN(C)S(=O)(=O)c1ccc(-c2cccc3sc(N)nc23)c(-c2nn[nH]n2)c1S(N)(=O)=O [Example 151, 4-(2-aminobenzo[d]thiazol-4-yl)-N1,N1-dimethyl-3-(2H-tetrazol-5-yl)benzene-1,2-disulfonamide] | 9.22 | 50 | 3.125 | 16.00 | 50 | 6.25 | 12.5 | 5.94 | 2.43 | – | – | – | – | – | – | – | –
Nc1ccc(-c2ccc(S(=O)(=O)NCC3(O)CCNCC3)c(S(N)(=O)=O)c2-c2nn[nH]n2)cn1 [Example 492, 4-(6-aminopyridin-3-yl)-N1-((4-hydroxypiperidin-4-yl)methyl)-3-(2H-tetrazol-5-yl)benzene-1,2 disulfonamide] | – | – | – | – | – | – | – | 0.305 | 0.52 | 0.24 | 3.125 | 1.563 | 0.3906 | 1.563 | 1.563 | 1.00 | –
Nc1nc(-c2cccc(-c3ccc(S(=O)(=O)N[C@H]4CCNC4)c(S(N)(=O)=O)c3-c3nn[nH]n3)c2)c[nH]1 [Example 294, (S)-3′-(2-amino-1H-imidazol-4-yl)-N4-(pyrrolidin-3-yl)-2-(2H-tetrazol-5-yl)-[1,1′-biphenyl]-3,4-disulfonamide] | – | 1.563 | 0.7813 | 2.00 | – | – | – | 0.197 | 1.72 | 0.742 | 1.563 | 0.7813 | 0.3906 | – | – | – | –
Cn1c(N)nc2c(-c3ccc(S(=O)(=O)NCCCN)c(S(N)(=O)=O)c3-c3nn[nH]n3)cccc21 [Example 183, 4-(2-amino-1-methyl-1H-benzo[d]imidazol-4-yl)-N^1-(3-aminopropyl)-3-(2H-tetrazol-5-yl)benzene-1,2-disulfonamide] | 0.11 | 0.7813 | 0.7813 | 1.00 | 0.7813 | 0.7813 | 0.3906 | 0.0539 | 0.338 | – | – | – | – | – | – | – | –
CNc1ccc(-c2ccc(S(=O)(=O)NCCN)c(S(N)(=O)=O)c2-c2nn[nH]n2)cn1 [Example 243] | 0.194 | 0.7813 | 0.7813 | 1.00 | – | – | – | 0.276 | 0.312 | – | 1.563 | 0.3906 | 0.3906 | – | – | – | –
NCCCNC(=O)c1cccc(-c2ccc(S(=O)(=O)NCCN)c(S(N)(=O)=O)c2-c2nn[nH]n2)c1 [Example 341, 4′-(N-(2-aminoethyl)sulfamoyl)-N-(3-aminopropyl)-3′-sulfamoyl-2′-(2H-tetrazol-5-yl)-[1,1′-biphenyl]-3-carboxamide] | 0.474 | 1.563 | 0.7813 | 2.00 | – | – | – | 1.71 | 4.13 | – | 3.125 | 1.563 | 0.7813 | – | – | – | –
